PubChem BioAssay (NCI)
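The compound was tested at five concentrations on cells cultured in 96-well plates, with a 48-hour exposure period. TGI is the concentration that stops growth completely.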

Experiments:
Experiment in all cases: NCI anticancer screen, dose series, 48 h
U251 CNS = test system: U251 CNS
UO-31 renal = test system: UO-31 renal
MDA-N = test system: MDA-N
HCT-15 colon = test system: HCT-15 colon
NCI-H460 lung = test system: NCI-H460 lung
SN12C renal = test system: SN12C renal
TK-10 renal = test system: TK-10 renal
CCRF-CEM leukemia = test system: CCRF-CEM leukemia
CAKI-1 renal = test system: CAKI-1 renal
HCC-2998 colon = test system: HCC-2998 colon
SF-539 CNS = test system: SF-539 CNS
COLO 205 colon = test system: COLO 205 colon
HT29 colon = test system: HT29 colon
MALME-3M melanoma = test system: MALME-3M melanoma
SK-MEL-2 melanoma = test system: SK-MEL-2 melanoma
OVCAR-3 ovarian = test system: OVCAR-3 ovarian
PC-3 prostate = test system: PC-3 prostate
SK-OV-3 ovarian = test system: SK-OV-3 ovarian
OVCAR-8 ovarian = test system: OVCAR-8 ovarian
OVCAR-5 ovarian = test system: OVCAR-5 ovarian
A498 renal = test system: A498 renal
SF-295 CNS = test system: SF-295 CNS
MDA-MB-231 breast = test system: MDA-MB-231 breast
HOP-62 NSCLC = test system: HOP-62 NSCLC
DU-145 prostate = test system: DU-145 prostate
OVCAR-4 ovarian = test system: OVCAR-4 ovarian
NCI-H23 lung = test system: NCI-H23 lung
IGROV1 ovarian = test system: IGROV1 ovarian
LOX IMVI melanoma = test system: LOX IMVI melanoma
SF-268 CNS = test system: SF-268 CNS
M14 melanoma = test system: M14 melanoma
HOP-92 NSCLC = test system: HOP-92 NSCLC
786-0 renal = test system: 786-0 renal
EKVX NSCLC = test system: EKVX NSCLC
KM12 colon = test system: KM12 colon
HCT-116 colon = test system: HCT-116 colon
SW-620 colon = test system: SW-620 colon
HL-60(TB) leukemia = test system: HL-60(TB) leukemia
SK-MEL-28 melanoma = test system: SK-MEL-28 melanoma
RXF 393 renal = test system: RXF 393 renal
MOLT-4 leukemia = test system: MOLT-4 leukemia
MDA-MB-435 = test system: MDA-MB-435
SNB-75 CNS = test system: SNB-75 CNS
SNB-19 CNS = test system: SNB-19 CNS
BT-549 breast = test system: BT-549 breast
SK-MEL-5 melanoma = test system: SK-MEL-5 melanoma
A549 NSCLC = test system: A549 NSCLC
HS 578T breast = test system: HS 578T breast
K-562 leukemia = test system: K-562 leukemia
SR leukemia = test system: SR leukemia
ACHN renal = test system: ACHN renal
NCI-H522 lung = test system: NCI-H522 lung
MCF7 breast = test system: MCF7 breast
UACC-257 melanoma = test system: UACC-257 melanoma
UACC-62 melanoma = test system: UACC-62 melanoma
NCI-H226 lung = test system: NCI-H226 lung
NCI/ADR-RES ovarian = test system: NCI/ADR-RES ovarian
RPMI-8226 leukemia = test system: RPMI-8226 leukemia

`CC(C)C1=C(O)C2=C(C(=O)C1=O)C1(C)CCCC(C)(C)C1CC2O` (configuration not stated) was tested, and the TGI (U251 CNS) was greater than 100 µM, the TGI (UO-31 renal) was 17.9 µM and the TGI (MDA-N) was 4.76 µM. It also gave a TGI (HCT-15 colon) of 13.8 µM, a TGI (NCI-H460 lung) of 12.8 µM and a TGI (SN12C renal) of 28 µM. For the same compound, the TGI (TK-10 renal) was greater than 100 µM, the TGI (CCRF-CEM leukemia) was 23.6 µM and the TGI (CAKI-1 renal) was 24.1 µM. The TGI (HCC-2998 colon) was 12 µM, the TGI (SF-539 CNS) was 52.7 µM and the TGI (COLO 205 colon) was greater than 100 µM. It also gave a TGI (HT29 colon) of 62 µM, a TGI (MALME-3M melanoma) of 16.6 µM and a TGI (SK-MEL-2 melanoma) of 11 µM. The TGI (OVCAR-3 ovarian) was 29 µM, the TGI (PC-3 prostate) was 31.7 µM and the TGI (SK-OV-3 ovarian) was 45.5 µM. For the same compound, the TGI (OVCAR-8 ovarian) was 90.7 µM, the TGI (OVCAR-5 ovarian) was 43.2 µM and the TGI (A498 renal) was 38.6 µM. It also gave a TGI (SF-295 CNS) of 64.4 µM, a TGI (MDA-MB-231 breast) of 9.46 µM and a TGI (HOP-62 NSCLC) of 21.1 µM. It also gave a TGI (DU-145 prostate) greater than 100 µM, a TGI (OVCAR-4 ovarian) of 82.6 µM and a TGI (NCI-H23 lung) of 3.93 µM. It also gave a TGI (IGROV1 ovarian) of 77.7 µM, a TGI (LOX IMVI melanoma) greater than 100 µM and a TGI (SF-268 CNS) greater than 100 µM. The TGI (M14 melanoma) was 15.3 µM, the TGI (HOP-92 NSCLC) was 13.3 µM and the TGI (786-0 renal) was greater than 100 µM. For the same compound, the TGI (EKVX NSCLC) was 49.7 µM, the TGI (KM12 colon) was 19 µM and the TGI (HCT-116 colon) was greater than 100 µM. For the same compound, the TGI (SW-620 colon) was 63.2 µM, the TGI (HL-60(TB) leukemia) was 30.4 µM and the TGI (SK-MEL-28 melanoma) was 38.5 µM. It also gave a TGI (RXF 393 renal) of 5.89 µM, a TGI (MOLT-4 leukemia) greater than 100 µM and a TGI (MDA-MB-435) of 13.6 µM. For the same compound, the TGI (SNB-75 CNS) was greater than 100 µM, the TGI (SNB-19 CNS) was 21.4 µM and the TGI (BT-549 breast) was 25.9 µM. The TGI (SK-MEL-5 melanoma) was 5.23 µM, the TGI (A549 NSCLC) was 34.8 µM and the TGI (HS 578T breast) was greater than 100 µM. It also gave a TGI (K-562 leukemia) greater than 100 µM, a TGI (SR leukemia) of 58.4 µM and a TGI (ACHN renal) of 13.2 µM. It also gave a TGI (NCI-H522 lung) of 53.7 µM, a TGI (MCF7 breast) of 22.8 µM and a TGI (UACC-257 melanoma) of 31.9 µM. The TGI (UACC-62 melanoma) was 8.66 µM.

`O=C(O)CNC(=O)C(CSC(=O)OCC1c2ccccc2-c2ccccc21)NC(=O)CCC(NC(=O)OCC1c2ccccc2-c2ccccc21)C(=O)O` (configuration not stated) showed a TGI (UO-31 renal) of 33 µM, a TGI (MDA-N) of 82.3 µM and a TGI (HCT-15 colon) of 64.8 µM. It also gave a TGI (NCI-H460 lung) of 34.2 µM, a TGI (NCI-H226 lung) greater than 100 µM and a TGI (SN12C renal) of 30.7 µM. The TGI (TK-10 renal) was 56 µM, the TGI (CCRF-CEM leukemia) was 41.2 µM and the TGI (CAKI-1 renal) was 15.7 µM. For the same compound, the TGI (HCC-2998 colon) was greater than 100 µM, the TGI (SF-539 CNS) was 30.6 µM and the TGI (COLO 205 colon) was 31.1 µM. For the same compound, the TGI (MALME-3M melanoma) was 59.4 µM, the TGI (SK-MEL-2 melanoma) was greater than 100 µM and the TGI (OVCAR-3 ovarian) was greater than 100 µM. The TGI (PC-3 prostate) was 28.9 µM, the TGI (SK-OV-3 ovarian) was greater than 100 µM and the TGI (OVCAR-8 ovarian) was 32.4 µM. The TGI (OVCAR-5 ovarian) was greater than 100 µM, the TGI (SF-295 CNS) was 30.5 µM and the TGI (MDA-MB-231 breast) was 31.9 µM. For the same compound, the TGI (HOP-62 NSCLC) was 28.9 µM, the TGI (DU-145 prostate) was 28.6 µM and the TGI (OVCAR-4 ovarian) was 29.5 µM. The TGI (NCI-H23 lung) was greater than 100 µM, the TGI (IGROV1 ovarian) was 26.8 µM and the TGI (LOX IMVI melanoma) was 0.577 µM. For the same compound, the TGI (SF-268 CNS) was 33.1 µM, the TGI (M14 melanoma) was greater than 100 µM and the TGI (HOP-92 NSCLC) was 36.3 µM. The TGI (NCI/ADR-RES ovarian) was 33.7 µM, the TGI (786-0 renal) was 9.13 µM and the TGI (EKVX NSCLC) was 32.2 µM. For the same compound, the TGI (HCT-116 colon) was 32.6 µM, the TGI (SW-620 colon) was 35.1 µM and the TGI (HL-60(TB) leukemia) was greater than 100 µM. For the same compound, the TGI (SK-MEL-28 melanoma) was greater than 100 µM, the TGI (RPMI-8226 leukemia) was 46.4 µM and the TGI (RXF 393 renal) was 34.7 µM. The TGI (MOLT-4 leukemia) was 45.4 µM, the TGI (MDA-MB-435) was 34.1 µM and the TGI (SNB-19 CNS) was greater than 100 µM. The TGI (BT-549 breast) was greater than 100 µM, the TGI (SK-MEL-5 melanoma) was greater than 100 µM and the TGI (A549 NSCLC) was 28 µM. The TGI (HS 578T breast) was greater than 100 µM, the TGI (K-562 leukemia) was 39.2 µM and the TGI (SR leukemia) was 15.4 µM. For the same compound, the TGI (ACHN renal) was 32.8 µM, the TGI (NCI-H522 lung) was 3.52 µM and the TGI (MCF7 breast) was greater than 100 µM. For the same compound, the TGI (UACC-257 melanoma) was greater than 100 µM.
